In patent US12173007B2, “Imidazopyridazine IL-17 inhibitor compounds” (Janssen Pharmaceutica NV, priority 2021, dated 2024):

Experiments:
[1] = test system: IL-17A-induced G-CSF production in human normal keratinocyte (NHK); assay: NHK assay: IL-17A-induced G-CSF production in normal human keratinocytes; assay type: cell-based; conditions: 24 h, IL-17A 5 ng/mL, G-CSF by HTRF, average if tested more than once
Summary of the method: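 Stimulus rhIL-17A 5 ng/mL final, premixed 1 h rt with compound; adult NHK, 5% FBS, 0.2% DMSO. Viability by CellTiter-Glo vs DMSO.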

[2] = target: IL-17A(FLAG-Tagged): IL-17RA(His-Tagged) binding (Homo sapiens, UniProt Q16552, K93Q); assay: IL-17A(FLAG-tagged):IL-17RA(His-tagged) binding disruption Eu-HTRF assay, Protocol 1; conditions: FLAG-IL-17A 2.5 nM; average if tested more than once
From the text: IL-17A(FLAG-Tagged): IL-17RA(His-Tagged) Binding Disruption Eu-HTRF Assay
An antibody directed against the FLAG tag of IL-17A (SEQ ID NO: 1) is labeled with the HTRF donor chromophore (Europium-cryptate). IL-17A is present as a dimer that is “locked into” this quaternary structure due to the formation of loop-spanning […] disulfide bridges. The construct of IL-17RA used in the assay excludes the […] portion of the receptor and is fused to a C-terminal 10×His tag (SEQ ID NO:2). An antibody directed against the His tag of the IL-17RA chimera is labeled with the HTRF acceptor chromophore (“D2”). The fluorescence-resonance energy transfer (FRET) depends on the vicinity of the donor chromophore to the acceptor, and interruption of the binding between the IL-17A and IL-17RA causes the reduction/loss of FRET. Therefore, this assay allows to evaluate the compound effect on the binding IL-17A and IL-17RA by monitoring the fluorescence intensity of donor vs acceptor. The assay was run using either Protocol 1 or Protocol 2 as described below.
Protocol 1. 40 nl of 2-fold serial diluted compound solution for total 22 dilution points is added into each well of a 1536-well, white, low-volume, non-binding plate (Greiner #782904), then 2 μl of FLAG tagged IL-17A at 2×final concentration (2.5 nM) in solution of PBS+0.01% Triton-X100 is added to each well. The assay plate is briefly centrifuged then incubated for 1 h at rt. A mixed solution is prepared containing 2×5 nM 10HIS×IL-17RA, 2×2.5 nM Eu-anti-FLAG (CISBIO), 2×5 nM D2-anti-HIS (CISBIO) in PBS+0.01% Triton-X100+200 mM Potassium Fluoride (Sigma 60238) and 2 μl of mix is added to each well of the assay plate. The plate is briefly centrifuged then incubated for 2 h at rt. The HTRF intensities at the wavelength of donor (620 nm) and acceptor (665 nm) are measured using BMG Pherastar. The ratio between intensities at two wavelengths is calculated and plotted against the compound concentration and the data is fitted to a one-site competition model to yield IC50 of the compound.

Chain of UniProt Q16552 (Q16552 with tags, fused parts or gaps K93Q): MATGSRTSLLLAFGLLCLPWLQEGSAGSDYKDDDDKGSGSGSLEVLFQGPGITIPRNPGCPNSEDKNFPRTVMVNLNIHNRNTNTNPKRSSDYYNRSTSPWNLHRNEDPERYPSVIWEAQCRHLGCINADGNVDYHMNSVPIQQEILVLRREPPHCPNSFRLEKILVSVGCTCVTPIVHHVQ

SMILES	IC50 ([1]; Homo sapiens, Keratinocyte) [nM]	IC50 [2] [nM]	IC50 [1] [nM]
O=C(N[C@H](c1cn2ncc(CN3CCCNC3=O)cc2n1)C1CCC(F)(F)CC1)c1nonc1C1CC1 [Example 18, (S)-4-Cyclopropyl-N-((4,4-difluorocyclohexyl)(7-((2-oxotetrahydropyrimidin-1(2H)-yl)methyl)imidazo[1,2-b]pyridazin-2-yl)methyl)-1,2,5-oxadiazole-3-carboxamide]	> 100	> 100	–
O=C(N[C@H](c1cn2ncc(CN3CC(F)(F)CNC3=O)cc2n1)C1CCC(F)(F)CC1)c1conc1COC(F)F [Example 22, (S)—N-((7-((5,5-Difluoro-2-oxotetrahydropyrimidin-1(2H)-yl)methyl)imidazo[1,2-b]pyridazin-2-yl)(4,4-difluorocyclohexyl)methyl)-3-((difluoromethoxy)methyl)isoxazole-4-carboxamide]	50 to 100	50 to 100	–
CC1CCCN(Cc2cnn3cc([C@@H](NC(=O)c4nonc4C4CC4)C4CCC(F)(F)CC4)nc3c2)C(=O)N1 (single isomer, unassigned) [Example 96, 4-Cyclopropyl-N—((S)-(4,4-difluorocyclohexyl)(7-(((R*)-4-methyl-2-oxo-1,3-diazepan-1-yl)methyl)imidazo[1,2-b]pyridazin-2-yl)methyl)-1,2,5-oxadiazole-3-carboxamide]	> 100	< 50	–
O=C(N[C@H](c1cn2ncc(CN3CC(F)(F)CNC3=O)cc2n1)C1CCC(F)(F)CC1)c1cnn(CC2CC2)n1 [Example 24, (S)-2-(Cyclopropylmethyl)-N-((7-((5,5-difluoro-2-oxotetrahydropyrimidin-1(2H)-yl)methyl)imidazo[1,2-b]pyridazin-2-yl)(4,4-difluorocyclohexyl)methyl)-2H-1,2,3-triazole-4-carboxamide]	> 100	> 100	–
CC1CCCN(Cc2cnn3cc([C@@H](NC(=O)c4ccnn4C(C)C)C4CCC(F)(F)CC4)nc3c2)C(=O)N1 (single isomer, unassigned) [Example 95, N—((S)-(4,4-Difluorocyclohexyl)(7-(((S*)-4-methyl-2-oxo-1,3-diazepan-1-yl)methyl)imidazo[1,2-b]pyridazin-2-yl)methyl)-1-isopropyl-1H-pyrazole-5-carboxamide]	–	> 100	> 100
O=C(N[C@H](c1cn2ncc(CN3CC(F)(F)CNC3=O)cc2n1)C1CCC(F)(F)CC1)c1cnn(CCC(F)(F)F)n1 [Example 27, (S)—N-((7-((5,5-Difluoro-2-oxotetrahydropyrimidin-1(2H)-yl)methyl)imidazo[1,2-b]pyridazin-2-yl)(4,4-difluorocyclohexyl)methyl)-2-(3,3,3-trifluoropropyl)-2H-1,2,3-triazole-4-carboxamide]	> 100	> 100	–
O=C(N[C@H](c1cn2ncc(CN3CC(F)(F)CNC3=O)cc2n1)C1CCC(F)(F)CC1)c1nonc1OCC(F)F [Example 26, (S)—N-((7-((5,5-Difluoro-2-oxotetrahydropyrimidin-1(2H)-yl)methyl)imidazo[1,2-b]pyridazin-2-yl)(4,4-difluorocyclohexyl)methyl)-4-(2,2-difluoroethoxy)-1,2,5-oxadiazole-3-carboxamide]	< 50	< 50	–
[2H]C([2H])([2H])C([2H])([2H])n1nccc1C(=O)N[C@H](c1cn2ncc([C@@H](COC)N3CC(F)(F)CNC3=O)cc2n1)C1CCC(F)(F)CC1 [Example 13, N—((S)-(7-((S)-1-(5,5-Difluoro-2-oxotetrahydropyrimidin-1(2H)-yl)-2-methoxyethyl)imidazo[1,2-b]pyridazin-2-yl)(4,4-difluorocyclohexyl)methyl)-1-(ethyl-d5)-1H-pyrazole-5-carboxamide]	< 50	50 to 100	–
